We go through 5 compounds from patent publication US10675268B2, “Somatostatin receptor subtype 4 (SSTR4) agonists” (Centrexion Therapeutics Corporation, priority 2013, dated 2020).

The nature of the data set: Metabolic stability in pooled human liver microsomes (half-life). It counts as in vitro ADME. To be noted: 37° C., 1 μM test compound. The method, then: The metabolic stability of the compounds according to the invention may be investigated as follows:
The metabolic degradation of the test compound is assayed at 37° C. with pooled human liver microsomes. The final incubation volume of 100 μl per time point contains TRIS buffer pH 7.6 at room temperature (0.1 M), magnesium chloride (5 mM), microsomal protein (1 mg/mL) and the test compound at a final concentration of 1 μM. Following a short preincubation period at 37° C., the reactions are initiated by addition of beta-nicotinamide adenine dinucleotide phosphate, reduced form (NADPH, 1 mM), and terminated by transferring an aliquot into solvent after different time points. After centrifugation (10000 g, 5 min), an aliquot of the supernatant is assayed by LC-MS/MS for the amount of parent compound. The half-life is determined by the slope of the semi-logarithmic plot of the concentration-time profile.
For orientation: Liver microsomes are vesicles of endoplasmic reticulum, rich in cytochrome P450 enzymes.
For the compound `Cc1cc(C2CC2)ccc1OCC(C)(C)NC(=O)[C@H]1[C@@H]2CNC[C@@H]21` [Example 65], the “Half-life t1/2” value was greater than 2.17 h.

Take `CC(C)(NC(=O)[C@H]1[C@@H]2CNC[C@@H]21)c1n[nH]c2c(C(F)(F)F)cccc12` [Example 110]: the “Half-life t1/2” value was greater than 2.17 h. On to `Cc1cccc2c(C(C)(C)NC(=O)[C@H]3[C@@H]4CNC[C@@H]43)n[nH]c12` [Example 93], for which the “Half-life t1/2” value is greater than 2.17 h. Turning to `CCc1ccccc1OCC(C)(C)NC(=O)[C@H]1[C@@H]2CNC[C@@H]21.Cl` [Example 39], the “Half-life t1/2” value was greater than 2.17 h. Regarding `CC(C)(NC(=O)[C@H]1[C@@H]2CNC[C@@H]21)c1n[nH]c2ccccc12` [Example 94], the “Half-life t1/2” value is greater than 2.17 h.
